One data set relates to 2.2.15 cells. Put plainly: Cytotoxicity (TC50, median toxic concentration) in 2.2.15 cells. The class given is cell-based. The method, then:
(§1) Cell control wells were simultaneously set up. […] IC50 and SI were calculated, respectively.

For a further data set, the system named is HBsAg. Put plainly: In vitro anti-HBV: inhibition of HBsAg secretion in 2.2.15 cell supernatant (RIA). Conditions: 2.2.15 cells, day 8, RIA. It counts as cell-based, hepatitis B virus. Here is the method: Test Principle: • 2.2.15 cells were used as a vector of hepatitis B virus. Samples were assayed for their abilities to inhibit […] to carry out DNA replication and to produce HBsAg and HBeAg.
Test Materials and Method: • a. cell line: 2.2.15 cells; • b. treatment of samples: A sample was dissolved in DMSO in a suitable concentration right before use. The resulting solution was diluted in triple folds with culture media. There are eight dilutions. • c. positive control: Lamivudine (3TC) produced by Glaxo Wellcome; • d. reagents: radioimmunological kits of e antigen and s antigen of hepatitis B virus, α^32PdCTP; • e. test method: 2.2.15 cells were seeded in a 96-well microplate. After 36 hours, samples and positive controls in the above dilutions were added into the wells. Cell control wells were simultaneously set up. Culture media were replaced with fresh culture media containing samples in different dilutions, respectively, after 96 hours of addition of samples and positive controls. At the eighth day of addition of samples and positive controls, cell supernatants and 2.2.15 cells were harvested, respectively. Secretory volumes of HBsAg and HBeAg in the cell supernatants were assayed with the RIA method. The degree of HBV DNA replication in the cells was assayed with dot blot method. IC50 and SI were calculated, respectively.

A further data set relates to HBV DNA replication. Kind of data set: In vitro anti-HBV: inhibition of HBV DNA replication in 2.2.15 cells (dot blot). It counts as cell-based, hepatitis B virus. Conditions: day 8, dot blot. The method, then: as §1
A further data set has as its system DHBV-DNA. Put plainly: In vivo inhibition of DHBV-DNA in DHBV-infected ducklings. Conditions: intraperitoneal daily. An excerpt:
Test compounds: the compound prepared in Example 75
Test method: One-day-old ducklings were infected with serum containing DHBV positive virus (about 10^8-9 virions/ml). After a week, blood was collected and tested. The successfully transfected ducklings were randomly divided into three to five groups. Blank group, positive control group and treatment group(s) (one to three groups) were subjected to treatment tests. The treatment groups were divided into high, median and low dose groups. Intraperitoneal injection was carried out daily for ten days. Physiological saline was used to replace drugs in the blank group. Lamivudine was administered in the positive control group. […] Serum was separated and kept at −70° C. for tests. Duck hepatitis B virus surface antigen (DHBsAg) was assayed with DHBsAg dot molecular hybridization (DOT EIA). Duck hepatitis B virus deoxyribonucleic acid (DHBV DNA) contents in serum and duck livers were assayed with dot blot hybridization.

The next data set concerns HBeAg. Conditions: 2.2.15 cells, day 8, RIA.
The mark [1] stands for this setting: 12.5 mg/kg, 3rd Day of Withdrawal.
[2] abbreviates: 25.0 mg/kg, 3rd Day of Withdrawal.
Where [3] appears, read: 50.0 mg/kg, 3rd Day of Withdrawal.

Molecules are shown by their SMILES. Marks after values point to notes of the source that are not given here.

Experimental for HBeAg: Test Principle: • 2.2.15 cells were used as a vector of hepatitis B virus. Samples were assayed for their abilities to inhibit NBV to carry out DNA replication and to produce HBsAg and HBeAg.
Test Materials and Method: • a. cell line: 2.2.15 cells; • b. treatment of samples: A sample was dissolved in DMSO in a suitable concentration right before use. The resulting solution was diluted in triple folds with culture media. […] After 36 hours, samples and positive controls in the above dilutions were added into the wells. Cell control wells were simultaneously set up. Culture media were replaced with fresh culture media containing samples in different dilutions, respectively, after 96 hours of addition of samples and positive controls. At the eighth day of addition of samples and positive controls, cell supernatants and 2.2.15 cells were harvested, respectively. Secretory volumes of HBsAg and HBeAg in the cell supernatants were assayed with the RIA method. The degree of HBV DNA replication in the cells was assayed with dot blot method. IC50 and SI were calculated, respectively.

`CN(C)CCOc1ccc(C[C@H](NC(=O)c2ccccc2)C(=O)N[C@H](CO)Cc2ccccc2)cc1.Cl` [Example 75, N-[N-berizoyl-O-(2-dimethylamino-ethyl)-L-tyrosyl]-L-phenylalaninol hydrochloride]: the TC50 with 2.2.15 cells worked out at 388.03 µg/mL. For the same compound, the “Inhibition of HBsAg IC50” value in the data set with HBsAg is 33.51 µg/mL. Also, the “Inhibition of DNA Replication IC50” value in the data set with HBV DNA replication worked out at 2.41 µg/mL. Further, the “Inhibition Ratio” value in the data set on DHBV-DNA (setting [1]) was 9.23; with DHBV-DNA (12.5 mg/kg, 5th Day of Test) it was 12.87; with DHBV-DNA (12.5 mg/kg, 10th Day of Test), 12.92^a; in the data set on DHBV-DNA (setting [2]), 38.12^d; with DHBV-DNA (25.0 mg/kg, 5th Day of Test), 18.67^c; with DHBV-DNA (25.0 mg/kg, 10th Day of Test), 32.91^d. Moreover, the “Inhibition Ratio” value in the data set on DHBV-DNA (setting [3]) is given as 42.30^d; in the data set on DHBV-DNA (50.0 mg/kg, 5th Day of Test), 36.43^c; in the data set with DHBV-DNA (50.0 mg/kg, 10th Day of Test), 54.62^d. Moreover, the “OD Value” in the data set on DHBV-DNA (setting [1]) is on record as 1.09; in the data set on DHBV-DNA (12.5 mg/kg, 5th Day of Test), 1.11; in the data set with DHBV-DNA (12.5 mg/kg, 10th Day of Test), 1.11^a; in the data set with DHBV-DNA (setting [2]) it was 0.87^b; with DHBV-DNA (25.0 mg/kg, 5th Day of Test), 1.15^a; in the data set with DHBV-DNA (25.0 mg/kg, 10th Day of Test), 0.95^b. Besides, the “OD Value” is listed as 0.83^b in the data set on DHBV-DNA (setting [3]); 0.94^a in the data set on DHBV-DNA (50.0 mg/kg, 5th Day of Test); 0.73^b in the data set on DHBV-DNA (50.0 mg/kg, 10th Day of Test). The “Inhibition of HBeAg IC50” value with HBeAg worked out at 13.51 µg/mL.

Source of the values: patent US9023809B2, “Phenylalanine dipeptide derivatives, compositions and use thereof” (The Key Laboratory of Chemistry For Natural Products of …, priority 2008, dated 2015).
